Data taken from ChEMBL document CHEMBL1201862, “PubChem BioAssay data set” (2004).
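All cell lines were grown in 96-well plates and treated with compound for 48 hours. The concentration for 50% growth inhibition is given as GI50.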 Active and inactive are the calls of the source. No stated cut-off is given here; in the data, active = GI50 up to about 1.1 µM and inactive = higher.

Key:
Experiment in all cases: NCI tumour cell line growth inhibition, 48 h
[1] = system: 786-0
[2] = system: BT-549
[3] = system: COLO 205
[4] = system: HCT-15
[5] = system: HOP-62
[6] = system: HOP-92
[7] = system: K562
[8] = system: MCF7
[9] = system: MDA-MB-231
[10] = system: Malme-3M
[11] = system: NCI-H23
[12] = system: OVCAR-4
[13] = system: PC-3
[14] = system: SF-539
[15] = system: SK-MEL-5
[16] = system: SNB-75
[17] = system: SW-620
[18] = system: UACC-257
[19] = system: CCRF-CEM
[20] = system: DU-145

| Structure (SMILES) | GI50 [1] | GI50 [2] | GI50 [3] | GI50 [4] [µM] | GI50 [5] | GI50 [6] | GI50 [7] | GI50 [8] | GI50 [9] | GI50 [10] | GI50 [11] | GI50 [12] | GI50 [13] | GI50 [14] | GI50 [15] | GI50 [16] | GI50 [17] | GI50 [18] | GI50 [19] | GI50 [20] |
| --- | --- | --- | --- | --- | --- | --- | --- | --- | --- | --- | --- | --- | --- | --- | --- | --- | --- | --- | --- | --- |
| COc1ccc2c(c1)N=C1CSC(c3cc([N+](=O)[O-])ccc3Cl)N1C2 (stereo not given) | 26.2 µM (inactive) | 26.2 µM (inactive) | 30.1 µM (inactive) | 28.6 | 32.1 µM (inactive) | 19.6 µM (inactive) | 26 µM (inactive) | 14.8 µM (inactive) | 20.8 µM (inactive) | 23.2 µM (inactive) | 22.2 µM (inactive) | 23.8 µM (inactive) | 21.5 µM (inactive) | 28.5 µM (inactive) | 40.6 µM (inactive) | 19.2 µM (inactive) | 29.3 µM (inactive) | 15.8 µM (inactive) | – | – |
| O=c1[nH]nc(-c2ccccc2)n1-c1cccc([N+](=O)[O-])c1 | > 100 µM (inactive) | – | > 100 µM (inactive) | > 100 | > 100 µM (inactive) | > 100 µM (inactive) | > 100 µM (inactive) | > 100 µM (inactive) | > 100 µM (inactive) | > 100 µM (inactive) | > 100 µM (inactive) | > 100 µM (inactive) | – | > 100 µM (inactive) | > 100 µM (inactive) | > 100 µM (inactive) | > 100 µM (inactive) | > 100 µM (inactive) | > 100 µM (inactive) | > 100 µM (inactive) |
| Fc1ccc(C2(CCCN3CCc4[nH]c5cc(F)ccc5c4C3)OCCO2)cc1 | 13.9 µM (inactive) | – | 8.75 µM (inactive) | 16.4 | 13 µM (inactive) | 2.99 µM (inactive) | 4.18 µM (inactive) | 10.6 µM (inactive) | 18.7 µM (inactive) | 12.3 µM (inactive) | 16.2 µM (inactive) | 13.3 µM (inactive) | – | 12 µM (inactive) | 10.9 µM (inactive) | 12.1 µM (inactive) | 14.3 µM (inactive) | 4.71 µM (inactive) | 11.8 µM (inactive) | 14.7 µM (inactive) |
| CC(C)C(=O)NC(=S)Nc1ccc([N+](=O)[O-])cc1C#N | > 100 µM (inactive) | – | 16.8 µM (inactive) | > 100 | > 100 µM (inactive) | > 100 µM (inactive) | > 100 µM (inactive) | – | – | > 100 µM (inactive) | > 100 µM (inactive) | > 100 µM (inactive) | – | > 100 µM (inactive) | > 100 µM (inactive) | 16.7 µM (inactive) | > 100 µM (inactive) | > 100 µM (inactive) | > 100 µM (inactive) | – |
| Cc1cc(C(F)(F)F)cc(-n2nc(NS(=O)(=O)c3cc(C)c(Cl)cc3S)nc2N)n1 | 44.6 µM (inactive) | – | > 100 µM (inactive) | 39.5 | 23.3 µM (inactive) | 32.7 µM (inactive) | 39.7 µM (inactive) | 45.1 µM (inactive) | 37.7 µM (inactive) | > 100 µM (inactive) | – | > 95.3 µM (inactive) | 47.4 µM (inactive) | > 10 µM (inactive) | 37.1 µM (inactive) | > 100 µM (inactive) | > 100 µM (inactive) | > 100 µM (inactive) | 23.7 µM (inactive) | – |
| CC(=O)NC1C(OCc2ccccc2)OC(CO)C(O)C1OCC(=O)NC(C)C(=O)NC(CCC(=O)OCCNC(=O)c1cccc2cc3ccccc3nc12)C(N)=O (stereo not given) | 18.7 µM (inactive) | 20.3 µM (inactive) | 21.3 µM (inactive) | 13.9 | 24.3 µM (inactive) | 23.2 µM (inactive) | 39.1 µM (inactive) | 25.2 µM (inactive) | – | 15.6 µM (inactive) | 20.7 µM (inactive) | 20.8 µM (inactive) | 27.4 µM (inactive) | – | 17 µM (inactive) | 20.5 µM (inactive) | 25.2 µM (inactive) | 28.2 µM (inactive) | – | 11.3 µM (inactive) |
| N#CCCN(c1ccc(/C=N/c2ccc(C(=O)O)cc2)cc1)S(=O)(=O)c1ccccc1 | > 100 µM (inactive) | – | > 100 µM (inactive) | > 100 | > 100 µM (inactive) | > 100 µM (inactive) | > 100 µM (inactive) | – | – | > 100 µM (inactive) | > 100 µM (inactive) | > 100 µM (inactive) | – | > 100 µM (inactive) | > 100 µM (inactive) | > 100 µM (inactive) | > 100 µM (inactive) | > 100 µM (inactive) | > 100 µM (inactive) | – |
| O=CC[C@H]1C(=O)C[C@@H]2CCC[C@@H]21 | > 100 µM (inactive) | – | > 100 µM (inactive) | 45.7 | > 100 µM (inactive) | 57.3 µM (inactive) | 34.2 µM (inactive) | – | – | > 100 µM (inactive) | 43.7 µM (inactive) | > 100 µM (inactive) | – | 50.1 µM (inactive) | 33.5 µM (inactive) | 64.4 µM (inactive) | 46.9 µM (inactive) | > 100 µM (inactive) | 34.1 µM (inactive) | – |
| CCCCCCCCCCCCCC(=O)O.O=CC(O)C(O)C(OC1OC(CO)C(O)C(O)C1O)C(O)CO (stereo not given) | > 100 µM (inactive) | – | 73.5 µM (inactive) | 22.9 | 44.8 µM (inactive) | 48.3 µM (inactive) | 26.4 µM (inactive) | > 100 µM (inactive) | 28.8 µM (inactive) | 83.8 µM (inactive) | > 100 µM (inactive) | > 100 µM (inactive) | 73.5 µM (inactive) | > 100 µM (inactive) | 56.8 µM (inactive) | > 100 µM (inactive) | > 100 µM (inactive) | > 100 µM (inactive) | – | > 100 µM (inactive) |
| C1CCCCC2(CCCCCCCCC3(CCC1)OCCO3)OCCO2 | > 100 µM (inactive) | – | > 100 µM (inactive) | > 100 | > 100 µM (inactive) | > 100 µM (inactive) | > 100 µM (inactive) | > 100 µM (inactive) | – | > 100 µM (inactive) | > 100 µM (inactive) | > 100 µM (inactive) | > 100 µM (inactive) | > 100 µM (inactive) | > 100 µM (inactive) | > 100 µM (inactive) | > 100 µM (inactive) | > 100 µM (inactive) | – | > 100 µM (inactive) |
| COc1cc(C2=C(c3cc(OC)c4ccccc4c3OC)C(=O)c3ccccc3C2=O)c(OC)c2ccccc12 | > 100 µM (inactive) | > 100 µM (inactive) | > 100 µM (inactive) | > 100 | > 100 µM (inactive) | > 100 µM (inactive) | – | > 100 µM (inactive) | – | 62.5 µM (inactive) | > 100 µM (inactive) | 1.14 µM (inactive) | > 100 µM (inactive) | > 100 µM (inactive) | > 100 µM (inactive) | > 100 µM (inactive) | > 100 µM (inactive) | > 100 µM (inactive) | > 100 µM (inactive) | > 100 µM (inactive) |
| c1ccc([P+](CCCCCC[P+](c2ccccc2)(c2ccccc2)c2ccccc2)(c2ccccc2)c2ccccc2)cc1 | 24 µM (inactive) | – | 2.68 µM (inactive) | > 100 | 9.18 µM (inactive) | 8.32 µM (inactive) | 11.7 µM (inactive) | 5.94 µM (inactive) | 12.8 µM (inactive) | 37.3 µM (inactive) | 4.71 µM (inactive) | 23.3 µM (inactive) | 8.51 µM (inactive) | 5.24 µM (inactive) | – | 5.2 µM (inactive) | 18.5 µM (inactive) | 1.59 µM (inactive) | 13.1 µM (inactive) | 11.9 µM (inactive) |
| NC(=O)CCC(NC(=O)C(F)(F)F)C(=O)O (stereo not given) | > 100 µM (inactive) | – | > 100 µM (inactive) | > 100 | > 100 µM (inactive) | > 100 µM (inactive) | > 100 µM (inactive) | – | – | > 100 µM (inactive) | > 100 µM (inactive) | > 100 µM (inactive) | – | > 100 µM (inactive) | > 100 µM (inactive) | > 100 µM (inactive) | > 100 µM (inactive) | > 100 µM (inactive) | > 100 µM (inactive) | – |
| COc1ccc(C2c3cc4c(cc3OC(N3CCCCC3)C2C)OCO4)cc1 (stereo not given) | 80.2 µM (inactive) | – | > 100 µM (inactive) | > 100 | > 100 µM (inactive) | – | > 100 µM (inactive) | > 100 µM (inactive) | – | – | 58.5 µM (inactive) | – | > 100 µM (inactive) | > 100 µM (inactive) | > 100 µM (inactive) | 35.6 µM (inactive) | > 100 µM (inactive) | > 100 µM (inactive) | > 100 µM (inactive) | > 100 µM (inactive) |
| O=C1NC(N2CCCCC2)=N/C1=C\c1ccccc1O | > 100 µM (inactive) | – | > 100 µM (inactive) | > 100 | > 100 µM (inactive) | > 100 µM (inactive) | > 100 µM (inactive) | > 100 µM (inactive) | > 100 µM (inactive) | 23 µM (inactive) | > 100 µM (inactive) | 13 µM (inactive) | > 100 µM (inactive) | 37.1 µM (inactive) | 50.2 µM (inactive) | 27.9 µM (inactive) | > 100 µM (inactive) | > 100 µM (inactive) | > 100 µM (inactive) | > 100 µM (inactive) |
| CON(C)C(=O)C(C)NC(=O)OCc1ccccc1 (stereo not given) | > 100 µM (inactive) | > 100 µM (inactive) | – | > 100 | > 100 µM (inactive) | > 100 µM (inactive) | > 100 µM (inactive) | > 100 µM (inactive) | – | > 100 µM (inactive) | > 100 µM (inactive) | – | > 100 µM (inactive) | > 100 µM (inactive) | > 100 µM (inactive) | > 100 µM (inactive) | > 100 µM (inactive) | > 100 µM (inactive) | > 100 µM (inactive) | > 100 µM (inactive) |
